# Source: patent publication US11267800B2, “Cyclohexyl acid triazole azines as LPA antagonists” (BRISTOL-MYERS SQUIBB COMPANY, priority 2017, dated 2022)
# Counter-ions that a name gives are not always drawn.
# Biological target: T1, human LPA1 (Homo sapiens, UniProt Q92633)
# T1 construct: expressed in transfected cells; host or cells: Chinese hamster ovary (CHO) cells
# Test: LPA1 functional antagonist assay (calcium flux)
# Assay type: cell-based
# Conditions: CHO cells overexpressing human LPA1; inhibition of calcium flux induced by 10 nM LPA; read-out: hLPA1 IC50
# Protocol: The effectiveness of compounds of the present invention as LPA1 inhibitors can be determined in an LPA1 functional antagonist assay as follows:
# Chinese hamster ovary cells overexpressing human LPA1 were plated overnight (15,000 cells/well) in poly-D-lysine coated 384-well microplates (Greiner bio-one, Cat #781946) in DMEM/F12 medium (Gibco, Cat #11039). Following overnight culture, cells were loaded with calcium indicator dye (AAT Bioquest Inc, Cat #34601) for 30 minutes at 37° C. The cells were then equilibrated to room temperature for 30 minutes before the assay. Test compounds solubilized in DMSO were transferred to 384 well non-binding surface plates (Corning, Cat #3575) using the Labcyte Echo acoustic dispense and diluted with assay buffer [1×HBSS with calcium/magnesium (Gibco Cat #14025-092), 20 mM HEPES (Gibco Cat #15630-080) and 0.1% fatty acid free BSA (Sigma Cat #A9205)] to a final concentration of 0.5% DMSO. Diluted compounds were added to the cells by FDSS6000 (Hamamatsu) at final concentrations ranging from 0.08 nM to 5 μM. and were then incubated for 20 min at room temperature at which time LPA (Avanti Polar Lipids Cat #857130C) was added at final concentrations of 10 nM to stimulate the cells. The compound IC50 value was defined as the concentration of test compound which inhibited 50% of the calcium flux induced by LPA alone. IC50 values were determined by fitting data to a 4-parameter logistic equation (GraphPad Prism, San Diego Calif.).
# T1 sequence (Q92633 whole entry): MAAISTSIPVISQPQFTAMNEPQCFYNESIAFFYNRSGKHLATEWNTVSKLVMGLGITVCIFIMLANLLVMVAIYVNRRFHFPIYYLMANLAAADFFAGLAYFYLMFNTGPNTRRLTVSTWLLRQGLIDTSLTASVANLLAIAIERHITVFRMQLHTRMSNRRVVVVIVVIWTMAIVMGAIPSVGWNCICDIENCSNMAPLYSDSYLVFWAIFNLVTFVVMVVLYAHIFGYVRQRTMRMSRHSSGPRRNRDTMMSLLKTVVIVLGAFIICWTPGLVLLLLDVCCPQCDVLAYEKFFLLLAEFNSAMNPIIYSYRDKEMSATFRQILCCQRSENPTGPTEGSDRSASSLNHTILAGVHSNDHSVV
row,IC50 [nM],SMILES
1,244,Cc1nc(-c2nnn(C)c2CNc2nccc(OC(C)C(F)(F)F)n2)ccc1O[C@H]1CCC[C@H](C(=O)O)C1 (stereo partly shown) [Example 99]
2,21,"Cc1nc(-c2nnn(C)c2Nc2cccc(C3CC3)n2)ccc1O[C@H]1CCC[C@H](C(=O)O)C1 [Example 231, (1S,3S)-3-((6-(5-((6-cyclopropyl-pyridin-2-yl)amino)-1-methyl-1H-1,2,3-triazol-4-yl)-2-methylpyridin-3-yl)oxy)cyclohexane-1-carboxylic acid]"
3,34,CCC(C)(C)c1ccnc(NCc2c(-c3ccc(O[C@H]4CCC[C@H](C(=O)O)C4)c(C)n3)nnn2C)n1 [Example 149]
4,1260,"CCCc1ncnc(NCCc2c(-c3ccc(O[C@H]4CCC[C@H](C(=O)O)C4)c(C)n3)nnn2C)n1 [Example 213, (1S,3S)-3-((2-Methyl-6-(1-methyl-5-(2-((4-propyl-1,3,5-triazin-2-yl)amino)ethyl)-1H-1,2,3-triazol-4-yl)pyridin-3-yl)oxy)cyclohexane-1-carboxylic acid]"
5,96,Cc1nc(-c2nnn(C)c2CNc2nccc(C34CC(C3)C4)n2)ccc1O[C@H]1CCC[C@H](C(=O)O)C1 [Example 155]
6,32,"Cc1nc(-c2nnn(C)c2CNc2cc(-c3ccccc3)ccn2)ccc1O[C@H]1CCC[C@H](C(=O)O)C1 (stereo in doubt) [Example 2, (1S,3S)-3-((2-Methyl-6-(1-methyl-5-(((4-phenylpyridin-2-yl)amino)methyl)-1H-1,2,3-triazol-4-yl)pyridin-3-yl)oxy)cyclohexanecarboxylic acid]"
7,100,Cc1nc(-c2nnn(C)c2COc2nccc(N(C)C)n2)ccc1O[C@H]1CCC[C@H](C(=O)O)C1 [Example 343]
8,32,Cc1nc(-c2nnn(C)c2CNc2nccc(OC3CC3)n2)ccc1O[C@H]1CCC[C@H](C(=O)O)C1 [Example 117]
9,92,Cc1nc(-c2nnn(C)c2CNc2nccc(-c3cnccn3)n2)ccc1O[C@H]1CCC[C@H](C(=O)O)C1 [Example 81]
10,67,"Cc1nc(-c2nnn(C)c2COc2nccc(OC(C)C)n2)ccc1O[C@H]1CCC[C@@H](C(=O)O)C1 (single isomer, unassigned) [Example 249]"
11,19,CCOc1ccnc(NCc2c(-c3ccc(O[C@H]4CCC[C@H](C(=O)O)C4)c(C)n3)nnn2C)n1 [Example 13]
12,2190,"Cc1ncnc(NCc2c(-c3ccc(O[C@H]4CCC[C@H](C(=O)O)C4)c(C)n3)nnn2C)n1 [Example 196, (1S,3S)-3-((2-Methyl-6-(1-methyl-5-(((4-methyl-1,3,5-triazin-2-yl)amino)methyl)-1H-1,2,3-triazol-4-yl)pyridin-3-yl)oxy)cyclohexane-1-carboxylic acid]"
13,94,"CCCc1cncc(NCc2c(-c3ccc(O[C@H]4CCC[C@H](C(=O)O)C4)c(C)n3)nnn2C)n1 [Example 380, (1S,3S)-3-((2-Methyl-6-(1-methyl-5-(((6-propylpyrazin-2-yl)amino)methyl)-1H-1,2,3-triazol-4-yl)pyridin-3-yl)oxy)cyclohexane-1-carboxylic acid]"
14,27,CCCc1cccc(NCc2c(-c3ccc(O[C@H]4CCC[C@H](C(=O)O)C4)c(C)n3)nnn2C)n1 [Example 398]
15,34,Cc1nc(-c2nnn(C)c2CNc2nccc(OCC(C)(F)F)n2)ccc1O[C@H]1CCC[C@H](C(=O)O)C1 [Example 78]
16,19,Cn1nnc(-c2ccc(O[C@H]3CCC[C@H](C(=O)O)C3)cn2)c1CNc1nccc(-c2ccccc2F)n1 [Example 28]
17,118,Cc1cc(OCc2c(-c3ccc(O[C@H]4CCC[C@H](C(=O)O)C4)c(C)n3)nnn2C)ncn1 [Example 342]
18,36,CCOc1cc(C2CCC2)nc(NCc2c(-c3ccc(O[C@H]4CCC[C@H](C(=O)O)C4)c(C)n3)nnn2C)n1 [Example 402]
19,144,Cc1nc(-c2nnn(C)c2COc2cc(-c3ccccn3)ncn2)ccc1O[C@H]1CCC[C@H](C(=O)O)C1 [Example 355]
20,77,"Cc1nc(-c2nnn(C)c2CNc2ncnc(CC(C)C)n2)ccc1O[C@H]1CCC[C@H](C(=O)O)C1 [Example 200, (1S,3S)-3-((6-(5-(((4-Isobutyl-1,3,5-triazin-2-yl)amino)methyl)-1-methyl-1H-1,2,3-triazol-4-yl)-2-methyl-pyridin-3-yl)oxy)cyclohexane-1-carboxylic acid]"
21,100,COCCCCOc1cc(OCc2c(-c3ccc(O[C@H]4CCC[C@H](C(=O)O)C4)c(C)n3)nnn2C)ncn1 [Example 360]

row,IC50 [nM],SMILES
1,16,CCOc1ccnc(N(C)Cc2c(-c3ccc(O[C@H]4CCC[C@H](C(=O)O)C4)c(C)n3)nnn2C)n1 [Example 271]
2,98,CSc1cc(NCc2c(-c3ccc(O[C@H]4CCC[C@H](C(=O)O)C4)c(C)n3)nnn2C)ncn1 [Example 364]
3,443,COC(=O)c1cc(C(C)(C)C)nc(NCc2c(-c3ccc(O[C@H]4CCC[C@H](C(=O)O)C4)c(C)n3)nnn2C)n1 [Example 161]
4,10,"CCCCc1cccc(Nc2c(-c3ccc(O[C@H]4CCC[C@H](C(=O)O)C4)c(C)n3)nnn2C)n1 [Example 236, (1S,3S)-3-((6-(5-((6-butylpyridin-2-yl)amino)-1-methyl-1H-1,2,3-triazol-4-yl)-2-methylpyridin-3-yl)oxy)cyclohexane-1-carboxylic acid]"
5,93,"Cc1nc(-c2nnn(C)c2CN(C)c2ncnc(C3CC3)n2)ccc1O[C@H]1CCC[C@H](C(=O)O)C1 [Example 379, (1S,3S)-3-{[6-(5-{[(4-cyclopropyl-1,3,5-triazin-2-yl)(methyl)amino]methyl}-1-methyl-1H-1,2,3-triazol-4-yl)-2-methylpyridin-3-yl]oxy}cyclohexane-1-carboxylic acid]"
6,173,Cn1nnc(-c2ccc(O[C@H]3CCC[C@H](C(=O)O)C3)cn2)c1COc1nccc(C(F)(F)F)n1 [Example 404]
7,21,Cc1nc(-c2nnn(C)c2CNc2ncc(F)c(NCCC3CC3)n2)ccc1O[C@H]1CCC[C@H](C(=O)O)C1 [Example 57]
8,45,Cc1nc(-c2nnn(C)c2CNc2nccc(Oc3ccc(Cl)cc3)n2)ccc1O[C@H]1CCC[C@H](C(=O)O)C1 [Example 112]
9,15,CCOc1ccnc(NCc2c(-c3ccc(O[C@H]4CCC[C@H](C(=O)O)C4)c(CC)n3)nnn2C)n1 [Example 393]
10,19,"Cc1nc(-c2nnn(C)c2Nc2cccc(Cc3ccccc3)n2)ccc1O[C@H]1CCC[C@H](C(=O)O)C1 [Example 226, (1S,3S)-3-((6-(5-((6-benzylpyridin-2-yl)amino)-1-methyl-1H-1,2,3-triazol-4-yl)-2-methylpyridin-3-yl)oxy)cyclohexane-1-carboxylicacid]"
11,66,Cc1nc(-c2nnn(C)c2COc2cc(Cl)ncn2)ccc1O[C@H]1CCC[C@H](C(=O)O)C1 [Example 304]
12,26,Cc1nc(-c2nnn(C)c2COc2cc(OC3CC3)ncn2)ccc1O[C@H]1CCC[C@H](C(=O)O)C1 [Example 274]
13,22,CCCOc1ccnc(NCc2c(-c3ccc(O[C@H]4CCC[C@H](C(=O)O)C4)c(C#N)n3)nnn2C)n1 [Example 408]
14,57,Cc1nc(-c2nnn(C)c2CNc2cc(OC(F)(F)F)ccn2)ccc1O[C@H]1CCC[C@H](C(=O)O)C1 [Example 72]
15,16,Cc1nc(-c2nnn(C)c2CNc2nccc(OC3CCC3)n2)ccc1O[C@H]1CCC[C@H](C(=O)O)C1 [Example 96]
16,17,Cc1nc(-c2nnn(C)c2CNc2nccc(Oc3cccc(F)c3)n2)ccc1O[C@H]1CCC[C@H](C(=O)O)C1 [Example 109]
17,41,Cc1nc(-c2nnn(C)c2COc2cc(-c3ccc(F)cc3)ncn2)ccc1O[C@H]1CCC[C@H](C(=O)O)C1 [Example 313]
18,789,"CCc1nc(CC)nc(NCc2c(-c3ccc(O[C@H]4CCC[C@H](C(=O)O)C4)cn3)nnn2C)n1 [Example 225, (1S,3S)-3-((6-(5-(((4,6-diethyl-1,3,5-triazin-2-yl)amino)methyl)-1-methyl-1H-1,2,3-triazol-4-yl)pyridin-3-yl)oxy)cyclohexane-1-carboxylic acid]"
19,110,Cc1nc(-c2nnn(C)c2Cc2cccc(-c3ccccc3)n2)ccc1O[C@H]1CCC[C@H](C(=O)O)C1 [Example 376]
20,41,"Cc1nc(-c2nnn(C)c2COc2nccc(OC3CC3)n2)ccc1O[C@H]1CCCC(C(=O)O)C1 (mixture of isomers) [Example 251, (3S)-3-((6-(5-(((4-cyclopropoxypyrimidin-2-yl)oxy)methyl)-1-methyl-1H-1,2,3-triazol-4-yl)-2-methylpyridin-3-yl)oxy)cyclohexane-1-carboxylic acid]"
21,134,Cc1nc(-c2nnn(C)c2CNc2ncc(F)c(Nc3ccccc3)n2)ccc1O[C@H]1CCC[C@H](C(=O)O)C1 [Example 54]

row,SMILES,IC50 [nM]
1,"Cc1nc(-c2nnn(C)c2CNc2cc(OC3CCC3)cnn2)ccc1O[C@H]1CCC[C@H](C(=O)O)C1 [Example 190, (1S,3S)-3-((6-(5-(((5-Cyclobutoxypyridazin-3-yl)amino)methyl)-1-methyl-1H-1,2,3-triazol-4-yl)-2-methylpyridin-3-yl)oxy)cyclohexane-1-carboxylic acid, bis TFA Salt]",187
